Our source for the mutagenic call values is PubChem BioAssay AID1259407 (Chemical Carcinogenesis Research Information System (CCRIS), 2018).

Each structure is given as a SMILES string. The source made the active and inactive calls. How the calls were made is not given here.

This data set has as its system CCRIS mutagenicity, Ames/micronucleus/aberration tests. As to the kind of experiment: CCRIS mutagenicity studies.
[1] abbreviates: Test System: AMES SALMONELLA TYPHIMURIUM, Strain/Indicator: TA98, Metabolic Activation: NONE, Method: PREINCUBATION
Setting [2] is: Test System: AMES SALMONELLA TYPHIMURIUM, Strain/Indicator: TA98, Metabolic Activation: NONE, Method: STANDARD PLATE.
Setting [3] is: Test System: AMES SALMONELLA TYPHIMURIUM, Strain/Indicator: TA100, Metabolic Activation: NONE, Method: STANDARD PLATE.
The mark [4] stands for this setting: Test System: Ames Salmonella typhimurium, Strain/Indicator: TA98, Metabolic Activation: None, Method: Preincubation.
[5] abbreviates: Test System: Ames Salmonella typhimurium, Strain/Indicator: TA98, Metabolic Activation: Rat, Liver, S-9, Aroclor 1254, Method: Preincubation.
The mark [6] stands for this setting: Test System: Ames Salmonella typhimurium, Strain/Indicator: TA100, Metabolic Activation: None, Method: Preincubation.
[7] abbreviates: Test System: Ames Salmonella typhimurium, Strain/Indicator: TA100, Metabolic Activation: Rat, Liver, S-9, Aroclor 1254, Method: Preincubation.
[8] abbreviates: Test System: Ames Salmonella typhimurium, Strain/Indicator: TA1535, Metabolic Activation: None, Method: Preincubation.
The mark [9] stands for this setting: Test System: Ames Salmonella typhimurium, Strain/Indicator: TA1535, Metabolic Activation: Rat, Liver, S-9, Aroclor 1254, Method: Preincubation.
[10] abbreviates: Test System: Ames Salmonella typhimurium, Strain/Indicator: TA1537, Metabolic Activation: None, Method: Preincubation.
The mark [11] stands for this setting: Test System: Ames Salmonella typhimurium, Strain/Indicator: TA1537, Metabolic Activation: Rat, Liver, S-9, Aroclor 1254, Method: Preincubation.

For the molecule `COC(=O)N/N=C/c1c[n+]([O-])c2ccccc2[n+]1[O-]`, the mutagenic call by setting is: under setting [1], “active; positive”; (Test System: AMES SALMONELLA TYPHIMURIUM, Strain/Indicator: TA98, Metabolic Activation: S-9, Method: PREINCUBATION) “active; positive”; (Test System: E. COLI, Strain/Indicator: WP2 UVRA (PKM101), Metabolic Activation: NONE) “active; positive”; (Test System: E. COLI, Strain/Indicator: WP2 UVRA (PKM101), Metabolic Activation: S-9) “active; positive”.

With `c1scc2c1-c1cscc1C1NC21` (stereo unspecified), the mutagenic call was “active; positive” under setting [2] and “active; positive” under setting [3].

On to `Nc1cc(Cl)nc(C(=O)O)c1Cl`, for which the mutagenic call runs as follows: (End Point: In vitro chromosomal aberrations, Test System: Primary rat lymphocytes, Metabolic Activation: Rodent S-9) “inactive; negative”; under setting [4], “inactive; negative; purity 94.5%”; under setting [5], “inactive; negative; purity 94.5%”; under setting [6], “inactive; negative; purity 94.5%”; under setting [7], “inactive; negative; purity 94.5%”; under setting [8], “inactive; negative; purity 94.5%”. Further, the mutagenic call is “inactive; negative; purity 94.5%” under setting [9]; “inactive; negative; purity 94.5%” under setting [10]; “inactive; negative; purity 94.5%” under setting [11]; “inactive; negative” (Test System: Chinese hamster ovary cells, Strain/Indicator: CHO-K1-BH4/HGPRT, Metabolic Activation: None, Method: Forward mutation assay); “inactive; negative; purity 94.5%” (Test System: Chinese hamster ovary cells, Strain/Indicator: CHO-K1-BH4/HGPRT, Metabolic Activation: Rat, Liver, S-9, Aroclor 1254, Method: Forward mutation assay); “inactive; negative” (Test System: E. coli, Strain/Indicator: WP2 UVR A, Metabolic Activation: None, Method: Preincubation). In addition, the mutagenic call (Test System: E. coli, Strain/Indicator: WP2 UVRA, Metabolic Activation: Rat, Liver, S-9, Aroclor 1254, Method: Preincubation) was “inactive; negative”.

Turning to `Oc1ccc(Cc2ccc(O)cc2)cc1`, the mutagenic call was “inactive; negative” (End Point: In vitro micronucleus, Test System: HepG2 cells, Metabolic Activation: None); “inactive; negative” under setting [4]; “inactive; negative” under setting [5]; “inactive; negative” under setting [6]; “inactive; negative” under setting [7]; “inactive; negative” under setting [8]. The mutagenic call by setting is: under setting [9], “inactive; negative”; under setting [10], “inactive; negative”; under setting [11], “inactive; negative”; (Test System: E. coli, Strain/Indicator: W2 uvrA pKM101, Metabolic Activation: None, Method: Preincubation) “inactive; negative”; (Test System: E. coli, Strain/Indicator: W2 uvrA pKM101, Metabolic Activation: Rat, Liver, S-9, Aroclor 1254, Method: Preincubation) “inactive; negative”.

For `CC(F)F`, the mutagenic call is “inactive; negative” (Test System: AMES SALMONELLA TYPHIMURIUM, Strain/Indicator: TA98, Metabolic Activation: NONE, Method: GAS EXPOSURE); “inactive; negative” (Test System: AMES SALMONELLA TYPHIMURIUM, Strain/Indicator: TA98, Metabolic Activation: RAT LIVER S-9, PHENOBARBITAL AND BETA-NAPHTHOFLAVONE, Method: GAS EXPOSURE); “inactive; negative” (Test System: AMES SALMONELLA TYPHIMURIUM, Strain/Indicator: TA100, Metabolic Activation: NONE, Method: GAS EXPOSURE); “inactive; negative” (Test System: AMES SALMONELLA TYPHIMURIUM, Strain/Indicator: TA100, Metabolic Activation: RAT LIVER S-9, PHENOBARBITAL AND BETA-NAPHTHOFLAVONE, Method: GAS EXPOSURE); “inactive; negative” (Test System: AMES SALMONELLA TYPHIMURIUM, Strain/Indicator: TA1535, Metabolic Activation: NONE, Method: GAS EXPOSURE); “inactive; negative” (Test System: AMES SALMONELLA TYPHIMURIUM, Strain/Indicator: TA1535, Metabolic Activation: RAT LIVER S-9, PHENOBARBITAL AND BETA-NAPHTHOFLAVONE, Method: GAS EXPOSURE). In addition, the mutagenic call by setting is: (Test System: AMES SALMONELLA TYPHIMURIUM, Strain/Indicator: TA1537, Metabolic Activation: NONE, Method: GAS EXPOSURE) “inactive; negative”; (Test System: AMES SALMONELLA TYPHIMURIUM, Strain/Indicator: TA1537, Metabolic Activation: RAT LIVER S-9, PHENOBARBITAL AND BETA-NAPHTHOFLAVONE, Method: GAS EXPOSURE) “inactive; negative”; (Test System: E.COLI, Strain/Indicator: WP2UVRA, Metabolic Activation: NONE, Method: GAS EXPOSURE) “inactive; negative”; (Test System: E.COLI, Strain/Indicator: WP2UVRA, Metabolic Activation: RAT LIVER S-9, PHENOBARBITAL AND BETA-NAPHTHOFLAVONE, Method: GAS EXPOSURE) “inactive; negative”.

On to `CN(C)C(=N)N(C)C`, for which the mutagenic call is “inactive; negative” under setting [1]; “inactive; negative” (Test System: AMES SALMONELLA TYPHIMURIUM, Strain/Indicator: TA98, Metabolic Activation: RAT, LIVER, S-9, PCB, Method: PREINCUBATION); “inactive; negative” (Test System: AMES SALMONELLA TYPHIMURIUM, Strain/Indicator: TA100, Metabolic Activation: NONE, Method: PREINCUBATION); “inactive; negative” (Test System: AMES SALMONELLA TYPHIMURIUM, Strain/Indicator: TA100, Metabolic Activation: RAT, LIVER, S-9, PCB, Method: PREINCUBATION).

As to `CN(C)/C=N/c1nnc(/C=C/c2ccc([N+](=O)[O-])o2)o1`, the mutagenic call (Test System: AMES SALMONELLA TYPHIMURIUM, Strain/Indicator: TA100, Metabolic Activation: RAT, LIVER, S-9, KC500 OR PHENOBARBITAL, Method: LIQUID SUSPENSION) is “active; positive”.

Take `O=C/C(Br)=C(/Br)C(=O)O`: the mutagenic call is, setting by setting: (End Point: In vitro micronucleus, Test System: Human lymphocytes, Metabolic Activation: None) “inactive; negative”; under setting [3], “active; positive”.

As for `C=C(C)[C@@H]1CC=C(C=O)CC1`, the mutagenic call is “inactive; negative” (Test System: AMES SALMONELLA TYPHIMURIUM, Strain/Indicator: TA97, Metabolic Activation: NONE, Method: PREINCUBATION); “inactive; negative” (Test System: AMES SALMONELLA TYPHIMURIUM, Strain/Indicator: TA97, Metabolic Activation: RAT, LIVER, S-9, AROCLOR 1254, Method: PREINCUBATION); “inactive; negative” (Test System: AMES SALMONELLA TYPHIMURIUM, Strain/Indicator: TA102, Metabolic Activation: NONE, Method: PREINCUBATION); “inactive; negative” (Test System: AMES SALMONELLA TYPHIMURIUM, Strain/Indicator: TA102, Metabolic Activation: RAT, LIVER, S-9, AROCLOR 1254, Method: PREINCUBATION).

As to `CCOP(=O)(OCC)O/C(=C/Br)c1ccc(Cl)cc1Cl`, the mutagenic call under setting [2] was “inactive; negative”; the mutagenic call (Test System: AMES SALMONELLA TYPHIMURIUM, Strain/Indicator: TA98, Metabolic Activation: RAT, LIVER, S-9, AROCLOR 1254, Method: STANDARD PLATE) was “inactive; negative”; the mutagenic call under setting [3] is “inactive; negative”; the mutagenic call (Test System: AMES SALMONELLA TYPHIMURIUM, Strain/Indicator: TA100, Metabolic Activation: RAT, LIVER, S-9, AROCLOR 1254, Method: STANDARD PLATE) was “inactive; negative”; the mutagenic call (Test System: AMES SALMONELLA TYPHIMURIUM, Strain/Indicator: TA1535, Metabolic Activation: NONE, Method: STANDARD PLATE) is “inactive; negative”; the mutagenic call (Test System: AMES SALMONELLA TYPHIMURIUM, Strain/Indicator: TA1535, Metabolic Activation: RAT, LIVER, S-9, AROCLOR 1254, Method: STANDARD PLATE) was “inactive; negative”. In addition, the mutagenic call is “inactive; negative” (Test System: AMES SALMONELLA TYPHIMURIUM, Strain/Indicator: TA1537, Metabolic Activation: NONE, Method: STANDARD PLATE); “inactive; negative” (Test System: AMES SALMONELLA TYPHIMURIUM, Strain/Indicator: TA1537, Metabolic Activation: RAT, LIVER, S-9, AROCLOR 1254, Method: STANDARD PLATE); “inactive; negative” (Test System: AMES SALMONELLA TYPHIMURIUM, Strain/Indicator: TA1538, Metabolic Activation: NONE, Method: STANDARD PLATE); “inactive; negative” (Test System: AMES SALMONELLA TYPHIMURIUM, Strain/Indicator: TA1538, Metabolic Activation: RAT, LIVER, S-9, AROCLOR 1254, Method: STANDARD PLATE).
